Laboratory results taken from patent US9115145B2, “Tocotrienol derivatives and associated methods” (FIRST TECH INTERNATIONAL LIMITED, priority 2011, dated 2015).

Legend:
[1] = system: MDA-MB-231 human breast cancer cell line; assay: MTT assay of MDA-MB-231 cells; format: cell-based; settings: media containing 5% fetal bovine serum
Protocol: MDA-MB-231 and MCF7 cells were plated at a density of 8×10^3 cells/well and 10^4 cells/well in 96-well culture plates, respectively. The compounds were fed in serum free media containing 5% and 1% fetal bovine serum for MDA-MB-231 and MCF7 cells, respectively.

+SA mammary tumor = assay: +SA tumor implantation into mammary fat pads of syngeneic BALB/c mice; format: in vivo
Text: The malignant +SA mammary epithelial cell line was derived from an adenocarcinoma that developed spontaneously in a female BALB/c mouse. These cells can be grown on plastic in culture and display the ability to grow in soft agarose. Re-implantation of +SA mammary tumor cells back into the mammary fat pad of syngeneic mice results in the rapid development and growth of metastatic tumors. Prior to experimentation, +SA cells were serially passaged at subconfluent cell density. For subculturing, cells are rinsed with calcium/magnesium-free phosphate buffered saline (PBS) and incubated in 0.05% trypsin containing 0.025% EDTA in PBS for 5 min at 37° C. […] Cell pellets are then resuspended in control culture media, counted by hemocytometer, and then plated at the desired density in culture plates. […] On the day of tumour implantation, +SA cells grown in culture are isolated with trypsin, washed, counted and diluted to the desired concentration in fresh culture medium. […] Tumor size and body weighs were recorded every other day. Average tumor diameter for each palpable tumor was determined using the mean of the 2 largest perpendicular diameters as measured with vernier calipers. Tumor volume was determined using the equation: Volume=Length (cm)×Width^2 (cm)/2 or V=L×W^2/2 […]

Row | Structure (SMILES) | IC50 [1] [µM] | body weights (+SA mammary tumor; 0.5 mg/day intravenous, 14-day treatment period) | +SA mammary tumor growth (+SA mammary tumor; 0.5 mg/day, tail vein injection, 14 day, vs vehicle-treated control)
1 | CC(C)=CCC/C(C)=C/CC/C(C)=C/CC[C@]1(C)CCc2cc(O)c(C)c(C)c2O1 [Compound 1, γ-tocotrienol, reference compound] | 9.4 |  | 
2 | COc1ccc(CCNCc2c(O)c(C)c(C)c3c2CC[C@@](C)(CC/C=C(\C)CC/C=C(\C)CCC=C(C)C)O3)cc1OC [Compound 30, (R)-5-((3,4-dimethoxyphenethylamino)methyl)-2,7,8-trimethyl-2-((3E,7E)-4,8,12-trimethyltrideca-3,7,11-trienyl)chroman-6-ol] |  | did not significantly differ | grew at a significantly slower rate
